The viability is a read-out of living cells in per cent, often relative to untreated cells.

The first data set in a line: in vitro. The conditions noted are these: human, hela cells, % viability.
Turning to `O=C(CN1CCC(O)(c2ccccc2F)CC1)N1CCCCC1` [CBK281938], the viability at 28.5 h, 10 µM is 103%.
With `COc1cc(C(=S)N2CCN(C)CC2)ccc1OCC(N)=O` [CBK269037], the viability at 28.5 h, 10 µM is 84.7%.
For `COc1cccc2cc(C(=O)NCc3cccs3)oc12` [CBK149799], the viability at 28.5 h, 10 µM is 67.9%.
Take `COc1cc(OC)nc(Oc2ccccc2C(=O)O)n1` [CBK092218]: the viability at 28.5 h, 10 µM worked out at 84.6%.
Turning to `CCCN1CCC(CNC(=O)c2cnn(-c3ccc(F)cc3)c2)CC1` [CBK282466], the viability at 28.5 h, 10 µM came to 112%.
For `O=C(Nc1ccc2cccc(O)c2n1)c1cc[nH]c1` [CBK122743], the viability at 28.5 h, 10 µM is 94.9%.
In the case of `O=C(NCc1ccco1)c1cccc(Oc2ccccc2)c1` [CBK270333], the viability at 28.5 h, 10 µM stood at 89.3%.
In the case of `CCCn1c(C)cc2cc(NC(=O)Cn3cc(C)nn3)ccc21` [CBK281548], the viability at 28.5 h, 10 µM amounted to 104%.
`CCc1nn(CC(=O)N(C)C)c(=O)c2cc3sccc3n12` [CBK284031]: the viability at 28.5 h, 10 µM turned out to be 91.3%.
Regarding `CCCc1n[nH]c(-c2c(F)cccc2F)c1C(=O)OCC` [CBK113546], the viability at 28.5 h, 10 µM amounted to 92.7%.
On the same count and under the same terms, the result for `CC1(C)CC(=O)C=C(C(=O)Nc2cncc(OC3CCNCC3)n2)O1` [CBK038922T] reads 103%; that for `Cn1cc(CCO)c2ccccc21` [CBK081087], 109%.
With `CCN(Cc1ccncc1)C(=O)NCc1cnc(C)cn1` [CBK155128], the viability at 28.5 h, 10 µM worked out at 105%.
With `Cc1onc(-c2c(Cl)cccc2Cl)c1N(C)C(=O)N1CCCCC1` [CBK086555], the viability at 28.5 h, 10 µM was 109%.
Same read-out and setting: the result for `O=C1CCCN1CCC1CCN(c2nccc(CCC(F)(F)F)n2)CC1` [CBK307534] reads 90.1%.
For `CCN(Cc1ccccc1)c1ccc(C2NC(=O)NC(O)(C(F)(F)F)C2C(=O)c2cccnc2)cc1` (centres unmarked) [CBK264999], the viability at 28.5 h, 10 µM is 91.7%.
Same read-out and setting: the value for `COCOc1ccc(-c2nc(-c3cccs3)cnc2N)cc1` [CBK063977] was 101%; that for `Cn1cc(-c2ccccc2CN2CCCC2)c2onc(-c3ccccc3)c2c1=O` [CBK036319C] was 115%.
With `COc1ccc(-c2nn(-c3ccccc3)cc2/C=C2/SC(=S)N(Cc3ccccc3)C2=O)c(C)c1` [CBK265107], the viability at 28.5 h, 10 µM amounted to 93.7%.
Turning to `CC(C)(C)NS(=O)(=O)c1ccc(NC(=O)NC2CCCCC2)cc1` [CBK267324], the viability at 28.5 h, 10 µM is 96.7%.
Take `CC(Sc1ccc(Cl)cc1)C(=O)Nc1ccc(CSc2ccccc2)cc1` (centres unmarked) [CBK264670]: the viability at 28.5 h, 10 µM was found to be 93.2%.
As to `Nc1nc(CSCCO)nc(Nc2ccc(F)cc2)n1` [CBK265542], the viability at 28.5 h, 10 µM turned out to be 98.3%.
For `Cc1[nH]c2c(C(=O)NCCCC3CCOC3)cccc2c1C` (centres unmarked) [CBK282551], the viability at 28.5 h, 10 µM turned out to be 84.1%.
With `COc1ccc(-c2cnc(NCC3CC3)c(C(=O)N3CCN(C)CC3)c2)cc1` [CBK076327], the viability at 28.5 h, 10 µM was found to be 96.6%.
For `Cc1ccc(NC(=O)c2ccc(-n3nncc3C)cc2)cc1` [CBK287790], the viability at 28.5 h, 10 µM amounted to 80.9%.
Take `O=C(CCn1c(C(F)F)cc2cccnc21)NC1CCCCC1` [CBK285064]: the viability at 28.5 h, 10 µM came to 92.1%.
On to `CC(C)c1ccc(/C=N/Nc2nc(-c3ccccc3)cs2)cc1` [CBK263091], for which the viability at 28.5 h, 10 µM amounted to 94.5%.
Same read-out and setting: the result for `Cc1c(Br)c([N+](=O)[O-])nn1C(C)C(=O)Nc1sc2c(c1C(N)=O)CCCC2` (centres unmarked) [CBK268914] reads 88.1%; that for `Cc1nn(CC(=O)N(C)CCCc2nccn2C)c(=O)c2ccccc12` [CBK307087], 92.2%.
With `Cc1nonc1CC(=O)N[C@H]1C2CCCCC2[C@@H]1c1ccccc1` (some centres unmarked) [CBK285126], the viability at 28.5 h, 10 µM is 102%.
As to `O=C(c1ccccc1)c1ccc(OCC(O)CN2CCN(c3ccccn3)CC2)cc1` (centres unmarked) [CBK266513], the viability at 28.5 h, 10 µM was determined as 98.3%.
The same measure, in the same setting: the result for `O=C(Nc1cccc(C(F)(F)F)c1)c1ccc(N2CCNCC2)c([N+](=O)[O-])c1` [CBK266274] reads 100%; that for `O=C1CCCN1CC#CCN1CCN(Cc2ccccc2)CC1` [CBK023770C], 96.2%.
In the case of `O=S(=O)(NC[C@H]1C[C@@H]2CC[N@]1C[C@@H]2CN1CCOCC1)c1ccc(Cl)cc1` [CBK288762], the viability at 28.5 h, 10 µM came to 92.4%.
Take `Cc1cc(O)n2nc(CC(=O)NCCCn3ccnc3C(C)C)nc2n1` [CBK306876]: the viability at 28.5 h, 10 µM came to 91.5%.
Same read-out and setting: the value for `NC(=O)Nn1c(CCC(=O)O)ccc1-c1cccs1` [CBK266019] was 93.1%; that for `S=C(NCCC(c1ccccc1)c1ccccc1)Nc1ccc(Cl)c(Cl)c1` [CBK263972] was 85.1%.
`Cc1ccccc1Cc1cccc(C2CCN(S(=O)(=O)c3cn(C)nc3C)CC2)n1` [CBK286141]: the viability at 28.5 h, 10 µM is 86.7%.
Still for that read-out and setting: the result for `C[C@H](c1ccccc1)n1c(=O)[nH]c2ncc(-c3cccc(/C=C/C(=O)O)c3)nc21` [CBK064983] reads 83.4%; that for `CCCNc1cncc(-c2cccc(F)c2)n1` [CBK065441], 97.3%; that for `O=C(c1ccc(Br)o1)n1cc(C(F)(F)F)ccc1=O` [CBK022391], 108%.
Turning to `O=C(c1cc2c(s1)CCC2)N1CCc2c(nc[nH]c2=O)C1` [CBK283703], the viability at 28.5 h, 10 µM worked out at 101%.
Same read-out and setting: the result for `CN(C)c1ccc(CN(CCO)CCO)cc1` [CBK261921] reads 88.3%.
On the same count and under the same terms, the result for `O=C(NC1CCS(=O)(=O)C1)/C(=C\c1ccccc1)NC(=O)c1ccc([N+](=O)[O-])cc1` (centres unmarked) [CBK261034] reads 106%; that for `O=C(Nc1ccccc1C(=O)O)c1ccc(S(=O)(=O)N2CCCCC2)cc1` [CBK265174], 103%.
In the case of `Cc1ccc(-c2ccc(Nc3ccc(Oc4ccccc4)cc3)nc2)cc1C` [CBK037740], the viability at 28.5 h, 10 µM turned out to be 92.7%.
As to `c1ccc2c(c1)CCCN2c1ncnc2n[nH]cc12` [CBK287886], the viability at 28.5 h, 10 µM was determined as 69.3%.
Turning to `CC(=O)N1CCN(c2ccc(NC(=O)CSc3ccc(C)cc3)cc2)CC1` [CBK269854], the viability at 28.5 h, 10 µM worked out at 95.6%.
`Nc1ncnc2sc3c(c12)CCN(C(=O)c1ccc2nccnc2c1)C3` [CBK295588]: the viability at 28.5 h, 10 µM is 102%.
Still for that read-out and setting: the value for `CSc1nc2ccc(NC(=O)CSc3nnnn3-c3ccccc3)cc2s1` [CBK263549] was 88.3%.
Regarding `Cc1cc(C)c(OCCNC(=O)c2ccccc2Sc2ccccc2C#N)c(C)c1` [CBK266048], the viability at 28.5 h, 10 µM stood at 97.7%.
In the case of `Oc1ccc(SCCCCN2CCCCC2)cc1` [CBK033676], the viability at 28.5 h, 10 µM is 110%.
With `COC1=CC2CCNC(CCCCC3NCCc4cc(OC)c(OC)cc43)C2C=C1OC` (centres unmarked) [CBK013354], the viability at 28.5 h, 10 µM was determined as 87%.
Take `CC(C)CCNC(=O)c1cccc(-n2c(=S)[nH]c3cc(Cl)ccc3c2=O)c1` [CBK294444]: the viability at 28.5 h, 10 µM came to 107%.
For `COc1cccc(OCC(O)CN(C)S(=O)(=O)O)c1` (centres unmarked) [CBK027121N], the viability at 28.5 h, 10 µM stood at 89.9%.
`Cc1nc(N)sc1-c1csc(Nc2ccc(Cl)cn2)n1` [CBK288532]: the viability at 28.5 h, 10 µM is 61.4%.
In the case of `CCN(CC)C(=O)C1CCCN(C(=O)NCc2cc(C)on2)C1` (centres unmarked) [CBK156114], the viability at 28.5 h, 10 µM worked out at 89.5%.
`COc1ccc(C(C)C)cc1-c1cc2ncccc2nc1N` [CBK081202]: the viability at 28.5 h, 10 µM amounted to 89.3%.
Regarding `COc1cccc(CN2CCC3(C/C=C/COc4ccccc4C(=O)NCCNC3=O)CC2)c1F` [CBK292025], the viability at 28.5 h, 10 µM was determined as 108%.
On to `COc1ncc(-c2nccnc2OCCn2cnc3c2c(=O)n(C)c(=O)n3C)c(OC)n1` [CBK106746], for which the viability at 28.5 h, 10 µM is 87.3%.
With `CNC(=O)C1(Cc2ccccc2-c2cccs2)CCN(C(=O)c2ccccc2OC)CC1` [CBK285685], the viability at 28.5 h, 10 µM worked out at 107%.
On to `COC(=O)C1CCCN1C(=O)C1(Oc2ccc(C)cc2)CCNCC1` (centres unmarked) [CBK306655], for which the viability at 28.5 h, 10 µM came to 96.5%.
The same measure, in the same setting: the result for `O=C(NCc1ccco1)c1cnoc1-c1ccc(F)cc1` [CBK154960] reads 116%.
For the compound `COc1cc(C(=O)Nc2ccc3oc(-c4cccnc4)nc3c2)ccc1OCc1ccc(Cl)cc1` [CBK264037], the viability at 28.5 h, 10 µM was found to be 87.9%.
As to `CCCc1cc(CNC(=O)c2cnn(-c3ccc(F)cc3)c2)on1` [CBK282463], the viability at 28.5 h, 10 µM came to 86.6%.
In the case of `c1ccc2cc(-c3cn4ccnc4c(Nc4ccc(N5CCOCC5)cc4)n3)ccc2c1` [CBK066359], the viability at 28.5 h, 10 µM is 108%.
Same read-out and setting: the value for `CCOc1ccccc1NC(=O)CCCC(=O)O` [CBK275986] was 98.9%.
As for `Cc1noc(C)c1C(=O)N1C2CCC1CC(c1ccc(F)cc1)C2` (centres unmarked) [CBK283738], the viability at 28.5 h, 10 µM was determined as 102%.
On to `Nc1ccc2c(-c3ccc(OC(F)(F)F)cc3)ccnc2n1` [CBK067649], for which the viability at 28.5 h, 10 µM was found to be 89.1%.
The same measure, in the same setting: the result for `O=C(O)C1C2CCC(C2)C1C(=O)NCCCCc1ccccc1` (centres unmarked) [CBK286967] reads 91.1%; that for `O=C(Nc1ccc(C(=O)OCC(=O)c2cccc3ccccc23)cc1)c1ccccc1` [CBK265518], 115%; that for `O=C(Nc1cccc(N2CCNCC2)c1)c1ccnc2ccccc12` [CBK029416T], 95.5%.
Turning to `Cc1nn(CC(=O)N2CCCCC2C)c(=O)c2cc3occc3n12` (centres unmarked) [CBK283622], the viability at 28.5 h, 10 µM came out at 76.7%.
For the compound `Oc1cccc(-c2nccnc2NCc2ccc(Cl)cc2)c1` [CBK037650], the viability at 28.5 h, 10 µM was determined as 92.8%.
As for `Cc1ccc(/C=C/C(=O)O)cc1S(=O)(=O)NC1CCS(=O)(=O)C1` (centres unmarked) [CBK264409], the viability at 28.5 h, 10 µM stood at 96.1%.
On the same count and under the same terms, the value for `CCCC(=O)Nc1ccc(-c2csc(N3CCN(C)CC3)n2)cc1` [CBK305025] was 103%; that for `COc1ncc(-c2cncc(NCc3cccc(Cl)c3)n2)c(OC)n1` [CBK065211] was 106%.
The same measure, in the same setting: the value for `COc1ccc(-c2ccc3c(c2)OC2(CCN(C(=O)c4cc(OC)c(C)c(OC)c4)CC2)CC3=O)cn1` [CBK169424] was 107%.

The data set is the same for the next values; noted with them: human, hela cells, % viability, bulk resorufin, single well.
As to `Cc1nocc1C(=O)N1CCC2(CC1)OCc1ccccc1O2` [CBK061470], the viability at 28.5 h, 10 µM turned out to be 105%.
With `COc1cccc2c1OC1(CCN(C(=O)C3CCC3)CC1)OC2` [CBK061168], the viability at 28.5 h, 10 µM was 85.4%.

Source of the values: PMC12040169 (PLOS Biology, 2025).
